Results taken from PubChem BioAssay (NCI).
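In this assay, cells in 96-well plates receive the compound at five concentrations for 48 hours. Endpoints are linearly interpolated between the surrounding concentrations. Abbreviation: GI50, concentration required for 50% inhibition of growth. At the TGI there is no net growth.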

How the values were obtained:
Assay in all cases: DTP human tumour cell line panel, 48 h
CAKI-1 renal = system: CAKI-1 renal
IGROV1 ovarian = system: IGROV1 ovarian
NCI-H460 lung = system: NCI-H460 lung
HL-60(TB) leukemia = system: HL-60(TB) leukemia
LOX IMVI melanoma = system: LOX IMVI melanoma
SW-620 colon = system: SW-620 colon
MDA-MB-231 breast = system: MDA-MB-231 breast
SK-MEL-5 melanoma = system: SK-MEL-5 melanoma
M14 melanoma = system: M14 melanoma
SF-295 CNS = system: SF-295 CNS

Compound | TGI (CAKI-1 renal) [µM] | TGI (IGROV1 ovarian) [µM] | TGI (NCI-H460 lung) [µM] | TGI (HL-60(TB) leukemia) [µM] | TGI (LOX IMVI melanoma) [µM] | TGI (SW-620 colon) [µM] | TGI (MDA-MB-231 breast) [µM] | TGI (SK-MEL-5 melanoma) [µM] | TGI (M14 melanoma) [µM] | TGI (SF-295 CNS) [µM] | GI50 (CAKI-1 renal) [nM] | GI50 (IGROV1 ovarian) [µM] | GI50 (NCI-H460 lung) [µM] | GI50 (HL-60(TB) leukemia) [nM] | GI50 (LOX IMVI melanoma) [nM] | GI50 (SW-620 colon) [nM] | GI50 (MDA-MB-231 breast) [nM] | GI50 (SK-MEL-5 melanoma) [µM] | GI50 (M14 melanoma) [nM] | GI50 (SF-295 CNS) [µM]
CC(C)(C)c1ccc(-c2nnc(SCc3ccc(Cl)cc3)n2-c2cccc(C(F)(F)F)c2)cc1 | > 100 | > 100 | > 100 | 14.6 | > 100 | > 100 | > 100 | > 100 | > 100 | > 100 |  |  |  |  |  |  |  |  |  | 
COc1ccc(Cc2ccccc2C(=O)O)c2ccccc12 | > 100 | 65.1 | 38.9 | 46 | 54.4 | > 100 | > 100 | 32.9 | > 100 | 93 |  |  |  |  |  |  |  |  |  | 
CN(C)CCn1cc(-c2ccc3c(Nc4ccc(CC(=O)Nc5cccc(F)c5)cc4)ncnc3c2)cn1 | 3.4 | 6.41 | 2.49 | 4.85 | 3.02 | 2.91 | 3.35 | > 10 | 3.26 | > 10 | 1240 | 2.01 | 0.087 | 1950 | 1330 | 1050 | 1550 | > 10 | 1490 | 2.95
C=C1C(=O)O[C@H]2[C@H]1CC/C(COC(=O)CCC(=O)OC/C1=C/CC[C@@]3(C)O[C@H]3[C@H]3OC(=O)C(=C)[C@@H]3CC1)=C\CC[C@@]1(C)O[C@@H]21 |  | 8.83 | 17.2 | 0.812 | 2.75 | 2.1 | 3.72 | 5.27 | 5.32 | 25.3 |  | 2.26 | 4.48 | 233 | 1370 | 602 | 1650 | 2.05 | 1600 | 10.5
COc1cc2c(/C=C3\C(=O)Nc4ccc(Br)cc43)c(Cl)n(C)c2cc1C | 7.3 |  | 4.69 | 16.9 | 6.7 | 15.4 | 10.5 | 2.99 | 6.01 | 1.16 | 2260 |  | 0.916 | 3090 | 1440 | 3090 | 2630 | 1.41 | 1800 | 0.327
COc1ccc(C(=O)Nc2cccc(C3CC(=O)c4c(cc(OC)c(OC)c4OC)O3)c2)cc1 (centres undefined) | > 100 | > 100 | 11.7 | 3.36 | 52.4 | > 100 | > 100 | 4.04 | 41.7 | 63.8 | 1580 | 2.41 | 2.21 | 1000 | 840 | 691 | 2060 | 1.49 | 534 | 1.72
CC1=C(C(=O)Nc2ccc(F)c(Cl)c2)C(c2cccc(Cl)c2)NC(=O)N1 (centres undefined) | > 100 | 31.3 | 34 | 0.156 | 31.6 | 40.7 | 25.1 | 26.9 | 31.7 | 50.9 | 27300 | 12.4 | 16.4 |  | 16900 | 18900 | 11600 | 13.6 | 15800 | 20.2
Oc1ccc2ccccc2c1/C=N\Nc1ccccn1 | 0.678 | 2.05 | 1.75 | 0.795 |  | > 100 | > 43 | > 50.1 | 5.34 | 2 | 212 | 0.273 | 0.336 | 267 | 275 | 588 | 463 | 1.57 | 441 | 0.64
N#Cc1c2ccccc2c2nnc3cc(Cl)c(Cl)cc3n12 | > 100 | > 100 | > 100 | 70.2 | > 100 | > 100 | 74.6 | > 100 | > 100 | > 100 | 77400 | 44.5 | 54.2 | 22600 | 59300 | > 100000 | 24200 | 84.2 | > 100000 | 93.7
Cn1c2ccccc2c2c3c(c4c5ccccc5n(CCCCCC#N)c4c21)C(=O)N(O)C3=O | 3.03 | 4.61 | 2.34 | 1.81 | 1.24 | > 100 | 7.92 | 1.09 | > 100 | 9.71 | 1370 | 1.59 | 0.377 | 381 | 167 | 732 | 2340 | 0.319 | 390 | 3.03
Fc1ccc(Nc2nc(Nc3ccc(-c4nc5ccccc5[nH]4)cc3)nc(N3CCCC3)n2)cc1 | 12.5 |  | 4.2 | 6.61 | 3.55 | 3.7 | 4.35 | 24.4 | 3.95 | 4.37 | 3010 |  | 2 | 2640 | 1770 | 1870 | 1870 | 11.8 | 1890 | 1.97
CCCCOC(=O)N[C@H]1CCc2cc(OC)c(OC)c(OC)c2-c2ccc(SC)c(=O)cc21 | 25.6 | 92.5 | 0.115 | 0.398 | 20.9 | 79 | 2.8 | < 0.01 | 15.6 | < 0.0361 |  |  |  |  |  |  |  |  |  | 
CC(O)CN(CCN(CC(C)O)CC(C)O)CC(C)O.O=[N+]([O-])O.[Cu+2] (centres undefined) | > 100 | > 100 | > 100 | > 100 | > 100 | > 100 | > 100 | 58.2 | > 100 | > 100 | > 100000 | > 100 | 99.2 | > 100000 | > 100000 | > 100000 | > 100000 | 24.3 | > 100000 | 9.07
COc1ccc(/C=C(/C(=O)N2CCNCC2)c2cc(OC)c(OC)c(OC)c2)cc1O | > 100 | > 100 | > 100 | 5.5 | > 100 | > 100 | > 100 | 56.4 | > 100 | 60.3 | > 100000 | 6.73 | 3.42 | 1870 | 5210 | 3690 | 4410 | 4.71 | 3830 | 5.36
CC(C)[C@]12O[C@H]1[C@@H]1O[C@]13[C@]1(O[C@H]1C[C@H]1c4c(C(=O)c5ccccc5)oc(OC(=O)c5ccccc5)c4CC[C@@]13C)[C@@H]2O | 50.2 | 9.74 | 11.4 | > 100 | 14.8 | 3.89 | 43.7 |  | 0.0688 | 2.75 | 18.3 | 0.028 |  | 23 | 14.4 | 17.9 | 46.3 |  | 23.6 | 0.0653
O=Cc1ccc(C(F)(F)F)cc1.[C-]#[O+].[C-]#[O+].[C-]#[O+].[Cr] | > 100 | > 100 | 40.3 | 92.6 | > 100 | > 100 | > 100 | 28.3 | 37 | > 100 | 24600 | 18.7 | 13.3 | 16100 | 26200 | 30900 | 25000 | 12.6 | 12900 | 38.1
O=C1c2cc3c(cc2-c2c1c1ccc([N+](=O)[O-])cc1c(=O)n2CCCCl)OCO3 | 76.6 |  | > 100 | > 28.8 | > 100 | > 100 | > 24.9 | 2.59 | > 100 | > 100 | 26.8 |  | 0.0277 | 328 | 74.2 | 263 |  | 0.246 | 1520 | 0.066
O=Nc1c(-c2cccc([N+](=O)[O-])c2)nc2ncccn12 | 22.6 | 23.4 | 54.8 | 6.15 | 27 | 6.03 | 35.2 | 32.2 | 26.8 | 66.5 | 10400 | 10.3 | 17.8 | 2320 | 11600 | 2080 | 16400 | 15.2 | 12000 | 21.9
COc1ccc(-n2c(N)c(C(=O)NCCN3CCOCC3)c3nc4ccccc4nc32)cc1OC | > 100 | 67.4 | > 100 | > 100 | > 100 | > 100 | > 100 | > 100 | > 100 |  | 4620 | 4.92 | 3.28 | 21800 | 5690 | 4070 | 32400 | 3.22 | 15100 | 
